Laboratory results as given in patent publication US20230159467A1, “NOVEL COMPOUNDS USEFUL IN THE TREATMENT AND/OR PREVENTION OF A DISEASE, DISORDER OR CONDITION ASSOCIATED WITH ANGIOTENSIN II” (Vicore Pharma AB, priority 2020, published 2023).

Experiments:
human AT2R = molecular target: T1, human AT2R (Homo sapiens, UniProt P50052); type: binding; settings: HEK-293 cell membranes
T1 construct: host or cells: HEK-293
T1 sequence (P50052 1-363): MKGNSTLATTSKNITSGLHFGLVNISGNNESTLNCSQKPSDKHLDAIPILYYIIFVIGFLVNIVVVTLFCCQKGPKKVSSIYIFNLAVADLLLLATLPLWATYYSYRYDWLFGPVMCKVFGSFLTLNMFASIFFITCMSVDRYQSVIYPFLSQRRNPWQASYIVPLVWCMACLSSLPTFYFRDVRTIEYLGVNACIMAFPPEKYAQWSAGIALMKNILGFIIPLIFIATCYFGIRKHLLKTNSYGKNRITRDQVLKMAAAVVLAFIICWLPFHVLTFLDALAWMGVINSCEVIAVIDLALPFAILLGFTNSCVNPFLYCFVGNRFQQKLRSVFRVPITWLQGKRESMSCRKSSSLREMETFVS

CYP2C19 = CYP2C19 (Homo sapiens, UniProt P33261); experiment: CYP450 inhibition assay, pooled human liver microsomes, omeprazole substrate; settings: for inhibition at 10 min, 10 µM: both, human, pooled human liver microsomes, pH 7.4, probe omeprazole; for CYP 450 Inhibition CYP2C19: at 10 μM
CYP3A = experiment: CYP450 inhibition assay, pooled human liver microsomes, testosterone substrate; settings: both, human, pooled human liver microsomes, pH 7.4, probe testosterone, CYP 450 Inhibition CYP3A testosterone, at 10 μM
CYP2D6 = CYP2D6 (Homo sapiens, UniProt P10635); experiment: CYP450 inhibition assay, pooled human liver microsomes, dextromethorphan substrate; settings: for inhibition at 10 min, 10 µM: both, human, pooled human liver microsomes, pH 7.4, probe dextromethorphan; for CYP 450 Inhibition CYP2D6: at 10 μM
CYP2C9 = CYP2C9 (Homo sapiens, UniProt P11712); experiment: CYP450 inhibition assay, pooled human liver microsomes, diclofenac substrate; settings: for inhibition at 10 min, 10 µM: both, human, pooled human liver microsomes, pH 7.4, probe diclofenac; for CYP 450 Inhibition CYP2C9: at 10 μM
[1] = Stability in rat liver microsomes; type: in vitro ADME; settings: half-life
Experimental: Stability in liver microsomes. Human, mouse and rat liver microsomes were used to assess the metabolic stability for the compounds. Metabolic stability was determined in 0.5 mg/mL human, mouse or rat liver microsomes at a compound concentration of 1 μM in 100 mM potassium phosphate buffer (pH 7.4) in a total incubation volume of 500 μL by Eurofins. The assay matrix was: human liver microsomes: mixed gender and pool of 50, rat liver microsomes: male, Sprague-Dawley, pool of 100 or more and mouse liver microsomes: male,CD-1, pool of 250 or more. Final microsomal protein concentration: 0.1mg/mL. The test concentration was 0.1 μM with 0.01% DMSO, 0.25% acetonitrile and 0.25% methanol by default. […] The reaction was initiated by adding NADPH-generating system and was incubated for 0, 15, 30, 45, and 60 min. The reaction was stopped by transferring the incubation mixture to acetonitrile/methanol. Samples were then mixed and centrifuged. Four reference compounds were tested in each assay. Propranolol and imipramine are relatively stable, whereas verapamil and terfenadine are readily metabolized inhuman liver microsomes. Samples were analyzed by HPLC-MS/MS using selected reaction monitoring. The HPLC system consisted of a binary LC pump with autosampler, a C-18 column, and a gradient. Peak areas corresponding to the test compound were recorded. The compound remaining was calculated by comparing the peak area at each time point to time zero. The half-life was calculated from the slope of the initial linear range of the logarithmic curve of compound remaining (%) vs. time, assuming first order kinetics. In addition, the intrinsic clearance (Clint) was calculated.^19,20

CYP2C8 = molecular target: T2, CYP2C8 (Homo sapiens, UniProt P10632); experiment: CYP450 inhibition assay, pooled human liver microsomes, amodiaquine substrate; settings: for inhibition at 10 min, 10 µM: both, human, pooled human liver microsomes, pH 7.4, probe amodiaquine; for CYP 450 Inhibition CYP2C8: at 10 μM
T2 sequence (P10632 1-490): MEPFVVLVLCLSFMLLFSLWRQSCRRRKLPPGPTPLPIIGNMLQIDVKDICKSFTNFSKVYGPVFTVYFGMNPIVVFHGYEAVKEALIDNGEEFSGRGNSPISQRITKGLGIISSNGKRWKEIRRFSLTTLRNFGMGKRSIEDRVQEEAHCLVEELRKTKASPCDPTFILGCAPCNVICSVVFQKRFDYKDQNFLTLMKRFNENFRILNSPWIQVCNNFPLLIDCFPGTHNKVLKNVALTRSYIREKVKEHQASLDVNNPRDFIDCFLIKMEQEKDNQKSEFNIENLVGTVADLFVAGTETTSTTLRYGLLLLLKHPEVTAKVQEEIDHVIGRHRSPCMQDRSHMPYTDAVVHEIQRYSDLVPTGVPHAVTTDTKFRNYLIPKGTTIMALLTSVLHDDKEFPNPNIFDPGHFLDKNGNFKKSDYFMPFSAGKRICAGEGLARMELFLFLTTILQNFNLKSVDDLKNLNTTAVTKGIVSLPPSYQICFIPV

CYP2D6, sequence (P10635 whole entry): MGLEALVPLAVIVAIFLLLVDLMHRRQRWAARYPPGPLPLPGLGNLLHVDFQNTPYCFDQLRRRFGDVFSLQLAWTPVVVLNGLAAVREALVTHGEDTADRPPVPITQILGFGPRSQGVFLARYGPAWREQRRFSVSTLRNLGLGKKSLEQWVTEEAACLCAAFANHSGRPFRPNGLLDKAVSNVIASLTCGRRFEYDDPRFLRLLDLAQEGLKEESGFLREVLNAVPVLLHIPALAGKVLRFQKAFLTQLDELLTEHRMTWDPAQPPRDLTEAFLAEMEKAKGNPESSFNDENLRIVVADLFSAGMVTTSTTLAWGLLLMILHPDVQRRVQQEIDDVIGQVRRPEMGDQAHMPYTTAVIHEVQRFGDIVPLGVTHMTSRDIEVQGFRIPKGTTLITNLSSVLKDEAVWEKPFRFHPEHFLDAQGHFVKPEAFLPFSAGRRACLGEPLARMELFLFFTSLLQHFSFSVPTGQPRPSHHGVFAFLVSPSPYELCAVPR
CYP2C9, sequence (P11712 whole entry): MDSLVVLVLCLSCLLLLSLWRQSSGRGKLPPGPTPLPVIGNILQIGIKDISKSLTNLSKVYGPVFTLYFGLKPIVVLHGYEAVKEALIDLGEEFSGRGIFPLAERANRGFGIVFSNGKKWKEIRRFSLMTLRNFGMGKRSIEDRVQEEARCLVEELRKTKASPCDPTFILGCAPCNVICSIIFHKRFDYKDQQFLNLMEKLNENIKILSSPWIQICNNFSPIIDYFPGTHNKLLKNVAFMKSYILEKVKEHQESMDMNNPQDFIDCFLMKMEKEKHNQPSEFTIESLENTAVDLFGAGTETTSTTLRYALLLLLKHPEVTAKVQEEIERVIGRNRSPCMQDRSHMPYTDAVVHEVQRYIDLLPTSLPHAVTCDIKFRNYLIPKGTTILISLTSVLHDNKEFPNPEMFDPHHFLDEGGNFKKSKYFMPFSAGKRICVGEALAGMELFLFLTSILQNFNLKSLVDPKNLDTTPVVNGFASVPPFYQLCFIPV
CYP2C19, sequence (P33261 whole entry): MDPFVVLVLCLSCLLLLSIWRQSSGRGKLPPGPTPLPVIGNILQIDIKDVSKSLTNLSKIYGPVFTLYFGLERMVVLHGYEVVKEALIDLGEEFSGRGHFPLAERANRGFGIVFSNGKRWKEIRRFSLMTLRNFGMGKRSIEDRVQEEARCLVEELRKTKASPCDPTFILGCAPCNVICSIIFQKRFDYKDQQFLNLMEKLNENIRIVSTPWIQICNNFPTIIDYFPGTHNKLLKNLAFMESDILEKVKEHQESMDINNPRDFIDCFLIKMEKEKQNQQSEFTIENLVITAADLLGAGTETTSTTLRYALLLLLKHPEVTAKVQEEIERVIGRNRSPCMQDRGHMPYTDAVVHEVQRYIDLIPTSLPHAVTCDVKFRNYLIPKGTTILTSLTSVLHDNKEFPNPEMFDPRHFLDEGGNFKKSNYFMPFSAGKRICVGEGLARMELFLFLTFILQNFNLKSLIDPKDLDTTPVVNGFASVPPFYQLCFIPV

SMILES | Ki (human AT2R) [nM] | inhibition at 10 min, 10 µM (CYP2C19) [%] | inhibition at 10 min, 10 µM (CYP3A) [%] | inhibition at 10 min, 10 µM (CYP2D6) [%] | inhibition at 10 min, 10 µM (CYP2C9) [%] | Stability in liver microsomes RLM [1] [min] | inhibition at 10 min, 10 µM (CYP2C8) [%] | CYP 450 Inhibition CYP2C19 (CYP2C19) [%] | CYP 450 Inhibition CYP2D6 (CYP2D6) [%] | CYP 450 Inhibition CYP2C9 (CYP2C9) [%] | CYP 450 Inhibition CYP2C8 (CYP2C8) [%]
COC(=O)NS(=O)(=O)c1sc(CC(C)C)nc1-c1ccc(Cn2ccnc2C(C)(C)C)cc1 [Example 3, Methyl ((4-(4-((2-(tert-butyl)-1H-imidazol-1-yl)methyl)phenyl)-2-isobutylthiazol-5-yl)sulfonyl) carbamate] | 29 |  | 2.7 |  |  | >60 |  | 38 | 12 | 23 | 26
COC(=O)NS(=O)(=O)c1ccc(CC(C)C)cc1-c1ccc(Cn2ccnc2C(C)(C)C)cc1 [Example 1A, Methyl ((4′-((2-(tert-butyl)-1H-imidazol-1-yl)methyl)-5-isobutyl-[1,1′-biphenyl]-2-yl)sulfonyl)carbamate] | 1.1 | 38 | 14 | 9 | 37 | >60 | 67 |  |  |  | 
CCCCOC(=O)[N-]S(=O)(=O)c1sc(CC(C)C)cc1-c1ccc(Cn2ccnc2C(C)(C)C)cc1.[K+] [Example 11B, Potassium (butoxycarbonyl)((3-(4-((2-(tert-butyl)-1H-imidazol-1-yl)methyl)phenyl)-5-isobutylthiophen-2-yl)sulfonyl)amide] | 6.6 | 66 | 21 | 14 | 88 | 18 | 81 |  |  |  | 

Second part, the compound after the results:

Ki (human AT2R) [nM] | inhibition at 10 min, 10 µM (CYP2C19) [%] | inhibition at 10 min, 10 µM (CYP3A) [%] | inhibition at 10 min, 10 µM (CYP2D6) [%] | inhibition at 10 min, 10 µM (CYP2C9) [%] | Stability in liver microsomes RLM [1] [min] | inhibition at 10 min, 10 µM (CYP2C8) [%] | CYP 450 Inhibition CYP2C19 (CYP2C19) [%] | CYP 450 Inhibition CYP2D6 (CYP2D6) [%] | CYP 450 Inhibition CYP2C9 (CYP2C9) [%] | CYP 450 Inhibition CYP2C8 (CYP2C8) [%] | SMILES
3.2 | 45 | 10.7 | 2.5 | 92 | 41 | 64 |  |  |  |  | COC(=O)[N-]S(=O)(=O)c1ccc(CC(C)C)cc1-c1ccc(Cn2ccnc2C(C)(C)O)cc1.[K+] [Example 8B, Potassium ((4′-((2-(2-hydroxypropan-2-yl)-1H-imidazol-1-yl)methyl)-5-isobutyl-[1,1′-biphenyl]-2-yl)sulfonyl)(methoxycarbonyl)amide]
18 |  | 7.5 |  |  | 12 |  | 66 | 12 | 68 | 70 | CCCCOC(=O)NS(=O)(=O)c1sc(CC(C)C)nc1-c1ccc(Cn2ccnc2C(C)(C)C)cc1 [Example 4, Butyl ((4-(4-((2-(tert-butyl)-1H-imidazol-1-yl)methyl)phenyl)-2-isobutylthiazol-5-yl)sulfonyl) carbamate]
